Source: patent publication US7829300B2 (priority 2002, dated 2010)

Tests used:
P2X7 = target: T1, P2X7 (Homo sapiens, UniProt Q99572); conditions: P2X7 versus P2Y2; cited from earlier work
T1 sequence (Q99572 1-595): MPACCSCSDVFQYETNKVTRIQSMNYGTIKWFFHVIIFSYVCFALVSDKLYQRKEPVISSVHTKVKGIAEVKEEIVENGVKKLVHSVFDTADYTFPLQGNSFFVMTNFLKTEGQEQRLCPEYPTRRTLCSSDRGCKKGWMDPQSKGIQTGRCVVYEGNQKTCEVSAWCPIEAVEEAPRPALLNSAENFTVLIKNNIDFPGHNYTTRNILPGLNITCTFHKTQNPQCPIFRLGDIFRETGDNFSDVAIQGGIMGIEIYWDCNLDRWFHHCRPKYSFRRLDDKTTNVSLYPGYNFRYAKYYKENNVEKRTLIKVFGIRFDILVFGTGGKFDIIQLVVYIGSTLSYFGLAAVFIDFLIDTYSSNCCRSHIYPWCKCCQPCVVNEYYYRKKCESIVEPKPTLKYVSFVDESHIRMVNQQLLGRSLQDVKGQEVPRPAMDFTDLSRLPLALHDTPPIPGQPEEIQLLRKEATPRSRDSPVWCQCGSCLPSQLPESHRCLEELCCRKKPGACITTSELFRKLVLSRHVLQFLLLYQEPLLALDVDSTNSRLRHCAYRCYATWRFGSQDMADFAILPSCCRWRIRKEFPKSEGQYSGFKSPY

P2Y2 receptor = experiment: Cytoplasmic Ca2+ measurement with ATP alone in CHOK1-μ-K32 cells (endogenous P2Y2); type: cell-based
[1] = tested on: CHOK1-empty (mock) strain; type: cell-based
μ opioid receptor = target: T2, μ opioid receptor (Homo sapiens, UniProt P35372); type: cell-based
T2 construct: expressed in transfected cells; host or cells: CHO K1 (clone CHOK1-μ-K32)

5HT-1B receptor = target: T3, 5HT-1B receptor (Cricetulus griseus, UniProt P46636); experiment: Cytoplasmic Ca2+ measurement (FLIPR, fluo-4) of the endogenously expressed 5HT-1B receptor in CHO K1 cells; type: cell-based; conditions: serotonin concentration 10 μM, 100 nM ATP, CHOK1-ORL-K66, mean of four measurements
T3 construct: the 5HT-1B receptor endogenously expressed by the CHO cells; endogenous in cells; host or cells: CHO K1 (CHOK1-ORL-K66)
Experimental: The cytoplasmic Ca^2+ concentration was measured in all the Examples using the FLIPR Calcium Plus Assay Kit and a corresponding FLIPR device from Molecular Devices, according to the manufacturer's instructions.
In brief, on the day preceding the experiment, the cells to be measured were plated out in a suitable 96-well cell culture plate, in a density of 25,000 cells per well, in a volume of 100 μl of the appropriate medium. Cell culture plates from Becton-Dickinson (order no. 66440) coated with poly-D-lysine were used for the test. On the day of the test, the cells were loaded with fluo-4. To that end, a vial of fluo-4 was dissolved in 23 μl of DMSO and 23 μl of Pluronic F 127. 42 μl of the solution were added to 21 ml of HBSS (+Probenecid and Hepes). 50 μl of this solution per well were added to the cells, the plates being incubated, for loading, for 30 minutes at 37° C., 5% CO2, 98% relative humidity. In order to remove excess loading solution, the plates were washed three times with 200 μl of HBSS in a washing device for 96-well plates. This was followed by a dispension step, in which in each case 100 μl of HBSS were added to the cells. […]
Compared with the negative control, the addition of the 5HT-1B agonist serotonin produced a marked signal intensification in the fluorescence measurement (FIG. 6).

T2 sequence (P35372 whole entry, species assumed): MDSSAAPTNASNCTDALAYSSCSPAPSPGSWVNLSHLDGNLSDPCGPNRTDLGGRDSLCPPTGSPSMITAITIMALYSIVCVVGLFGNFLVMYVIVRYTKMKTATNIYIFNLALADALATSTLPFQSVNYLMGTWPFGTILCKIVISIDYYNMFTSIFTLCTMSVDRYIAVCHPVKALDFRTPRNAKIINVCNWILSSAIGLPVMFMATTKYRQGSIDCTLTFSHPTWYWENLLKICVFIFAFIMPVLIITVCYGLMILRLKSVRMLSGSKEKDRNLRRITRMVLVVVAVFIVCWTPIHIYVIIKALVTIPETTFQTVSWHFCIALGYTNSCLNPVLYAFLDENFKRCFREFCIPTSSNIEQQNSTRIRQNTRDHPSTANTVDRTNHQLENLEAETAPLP
T3 sequence (P46636 whole entry): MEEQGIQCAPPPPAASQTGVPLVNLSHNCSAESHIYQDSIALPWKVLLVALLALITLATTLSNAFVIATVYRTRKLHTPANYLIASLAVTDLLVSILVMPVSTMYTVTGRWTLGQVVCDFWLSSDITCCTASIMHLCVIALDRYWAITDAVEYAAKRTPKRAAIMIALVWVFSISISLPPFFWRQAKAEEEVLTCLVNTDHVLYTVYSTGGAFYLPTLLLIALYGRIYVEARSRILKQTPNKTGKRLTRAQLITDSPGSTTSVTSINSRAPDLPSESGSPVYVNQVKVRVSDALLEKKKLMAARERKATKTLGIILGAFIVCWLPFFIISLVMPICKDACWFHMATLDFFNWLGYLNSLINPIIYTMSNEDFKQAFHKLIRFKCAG

Structure (SMILES): Nc1ncnc2c1ncn2[C@@H]1O[C@H](COP(=O)(O)OP(=O)(O)OP(=O)(O)O)[C@@H](O)[C@H]1O [ATP]
- ATP binding to P2X7 relative to P2Y2 (times more weakly) (P2X7): about 100 times
- fluorescence signal (P2Y2 receptor; 300 nM ATP, absence of DAMGO, CHOK1-μ-K32): more than 1000 relative units
- ATP concentration at which a change in the fluorescence is detectable (P2Y2 receptor; ATP on its own, CHO-μ-K32 cells): ≥ 300 nM

Structure (SMILES): C[C@@H](NC(=O)[C@@H](N)Cc1ccc(O)cc1)C(=O)NCC(=O)N(C)[C@@H](Cc1ccccc1)C(=O)NCCO [DAMGO]
- effect of DAMGO on the ATP-triggered fluorescence signal [1]: not affected
- fluorescence signal in non-transfected CHOK1 cells [1]: none of the μ-receptor agonists used gave a fluorescence signal above the background
- fluorescence intensity in dependence on concentration (μ opioid receptor): conventional dose-response curve
- fluorescence signal (μ opioid receptor): about 300 relative units

Structure (SMILES): NCCc1c[nH]c2ccc(O)cc12 [serotonin]
- fluorescence intensity on average (5HT-1B receptor): 1337 relative units
